According to PMC11280027, “Conquering the beyond Rule of Five Space with an Optimized High-Throughput Caco-2 Assay to Close Gaps in Absorption Prediction” (Pharmaceutics, 2024):

Tested on: not given
Test: not given
Conditions: human fraction absorbed; rounded to two significant figures; ref [17]; cited from earlier work

Compared with COc1ccc(C(CN(C)C)C2(O)CCCCC2)cc1 (stereo not shown) [Venlafaxine], COc1ccc2c(c1)C(=O)N(CCc1ccc(S(=O)(=O)NC(=O)NC3CCCCC3)cc1)C(=O)C2(C)C [Gliquidone] is lower in “Observed Human fa” value: 0.96 for the first, 0.95 for the second.

Compared with CNS(=O)(=O)CCc1ccc2[nH]cc(C3CCN(C)CC3)c2c1 [Naratriptan], CNS(=O)(=O)Cc1ccc2[nH]cc(CCN(C)C)c2c1 [Sumatriptan] is lower in “Observed Human fa” value: 0.70 for the first, 0.58 for the second.

CCN(CCO)CCCC(C)Nc1ccnc2cc(Cl)ccc12 (stereo not shown) [Hydroxychloroquine] and CN(C)CCc1c[nH]c2ccc(Cn3cncn3)cc12 [Rizatriptan] are the same in “Observed Human fa” value: 0.90 for the first, 0.90 for the second.

Compared with CC(C)(C)NC(=O)N[C@H](C(=O)N1C[C@H]2[C@@H]([C@H]1C(=O)NC(CC1CCC1)C(=O)C(N)=O)C2(C)C)C(C)(C)C (stereo partly shown) [Boceprevir], CC(C)(C)NC(=O)[C@@H]1CN(Cc2cccnc2)CCN1C[C@@H](O)C[C@@H](Cc1ccccc1)C(=O)N[C@H]1c2ccccc2C[C@H]1O [Indinavir] is lower in “Observed Human fa” value: 0.92 for the first, 0.63 for the second.

First: O=C(O)Cc1ccccc1Nc1c(Cl)cccc1Cl [Diclofenac]
Second: O=C1NC(=O)C(c2ccccc2)(c2ccccc2)N1 [Phenytoin]
The “Observed Human fa” value of the first is higher: 0.97 for the first, 0.93 for the second.

Compared with CCCc1nc2c(C)cc(-c3nc4ccccc4n3C)cc2n1Cc1ccc(-c2ccccc2C(=O)O)cc1 [Telmisartan], COc1ccccc1Oc1c(NS(=O)(=O)c2ccc(C(C)(C)C)cc2)nc(-c2ncccn2)nc1OCCO [Bosentan] is lower in “Observed Human fa” value: 0.82 for the first, 0.70 for the second.

First: C#CCN(C)[C@H](C)Cc1ccccc1 [Selegiline]
Second: Cc1cc(=O)n(-c2ccccc2)n1C [Antipyrine]
The “Observed Human fa” value of the first is higher: 1.0 for the first, 0.98 for the second.

Going from CN(C)CCc1c[nH]c2ccc(C[C@H]3COC(=O)N3)cc12 [Zolmitriptan] to CN(C)CCC=C1c2ccccc2COc2ccccc21 [Doxepin], the “Observed Human fa” value falls from 0.92 to 0.76.

First: CCOC(=O)N1CCC(=C2c3ccc(Cl)cc3CCc3cccnc32)CC1 [Loratadine]
Second: CC(=O)N1CCN(c2ccc(OCC3COC(Cn4ccnc4)(c4ccc(Cl)cc4Cl)O3)cc2)CC1 (stereo not shown) [Ketoconazole]
The “Observed Human fa” value of the first is higher: 0.90 for the first, 0.76 for the second.

Going from CC(C)c1nc(N(C)S(C)(=O)=O)nc(-c2ccc(F)cc2)c1/C=C/[C@@H](O)C[C@@H](O)CC(=O)O [Rosuvastatin] to CN(Cc1cnc2nc(N)nc(N)c2n1)c1ccc(C(=O)N[C@@H](CCC(=O)O)C(=O)O)cc1 [Methotrexate], the “Observed Human fa” value rises from 0.35 to 0.64.

Going from C[C@]12C[C@H](O)[C@H]3[C@@H](CCC4=CC(=O)CC[C@@]43C)[C@@H]1CC[C@@H]2C(=O)CO [Corticosterone] to CC[C@H]1OC(=O)[C@H](C)[C@@H](O[C@H]2C[C@@](C)(OC)[C@@H](O)[C@H](C)O2)[C@H](C)[C@@H](O[C@@H]2O[C@H](C)C[C@H](N(C)C)[C@H]2O)[C@](C)(O)C[C@@H](C)CN(C)[C@H](C)[C@@H](O)[C@]1(C)O [Azithromycin], the “Observed Human fa” value falls from 1.0 to 0.43.

Going from CC(C)CN(C[C@@H](O)[C@H](Cc1ccccc1)NC(=O)O[C@H]1CCOC1)S(=O)(=O)c1ccc(N)cc1 [Amprenavir] to O=C(O)COCCN1CCN(C(c2ccccc2)c2ccc(Cl)cc2)CC1 (stereo not shown) [Cetirizine], the “Observed Human fa” value falls from 0.76 to 0.73.

Compared with Cc1cccc(C)c1OCC(C)N (stereo not shown) [Mexiletine], COCCOC(=O)C1=C(C)NC(C)=C(C(=O)OC(C)C)C1c1cccc([N+](=O)[O-])c1 (stereo not shown) [Nimodipine] is higher in “Observed Human fa” value: 0.99 for the first, 1.0 for the second.

First: CC[C@H]1OC(=O)[C@H](C)[C@@H](O[C@H]2C[C@@](C)(OC)[C@@H](O)[C@H](C)O2)[C@H](C)[C@@H](O[C@@H]2O[C@H](C)C[C@H](N(C)C)[C@H]2O)[C@](C)(O)C[C@@H](C)/C(=N\OCOCCOC)[C@H](C)[C@@H](O)[C@]1(C)O [Roxithromycin]
Second: CO[C@H]1/C=C/O[C@@]2(C)Oc3c(C)c(O)c4c(c3C2=O)C2=NC3(CCN(CC(C)C)CC3)NC2=C(NC(=O)/C(C)=C\C=C\[C@H](C)[C@H](O)[C@@H](C)[C@@H](O)[C@@H](C)[C@H](OC(C)=O)[C@@H]1C)C4=O [Rifabutin]
The “Observed Human fa” value of the first is higher: 0.86 for the first, 0.53 for the second.

First: CNCCC=C1c2ccccc2CCc2ccccc21 [Nortriptyline]
Second: Nc1ccc(/N=N/c2ccccc2)c(N)n1 [Phenazopyridine]
The “Observed Human fa” value of the first is higher: 1.0 for the first, 0.90 for the second.

Going from CCN(CC)CCNC(=O)c1cc(Cl)c(N)cc1OC [Metoclopramide] to NS(=O)(=O)c1cc(C(=O)O)c(NCc2ccco2)cc1Cl [Furosemide], the “Observed Human fa” value falls from 0.89 to 0.61.

Compared with CNC(=O)Oc1ccc2c(c1)[C@]1(C)CCN(C)[C@@H]1N2C [Physostigmine], O=C(NCCN1CCOCC1)c1ccc(Cl)cc1 [Moclobemide] is higher in “Observed Human fa” value: 0.050 for the first, 0.85 for the second.

Going from CCOC(=O)C1=C[C@@H](OC(CC)CC)[C@H](NC(C)=O)[C@@H](N)C1 [Oseltamivir] to CNC(=C[N+](=O)[O-])NCCSCc1ccc(CN(C)C)o1 [Ranitidine], the “Observed Human fa” value falls from 0.75 to 0.56.

CN1CCC[C@H]1c1cccnc1 [Nicotine] and Cc1nccn1CC1CCc2c(c3ccccc3n2C)C1=O (stereo not shown) [Ondansetron] are the same in “Observed Human fa” value: 1.0 for the first, 1.0 for the second.

First: O=C1Cc2cc(CCN3CCN(c4nsc5ccccc45)CC3)c(Cl)cc2N1 [Ziprasidone]
Second: O=c1n(CCCN2CCN(c3cccc(Cl)c3)CC2)nc2ccccn12 [Trazodone]
The “Observed Human fa” value of the first is lower: 0.63 for the first, 0.98 for the second.

Compared with N=C(N)NC(=O)c1nc(Cl)c(N)nc1N [Amiloride], Nc1nnc(-c2cccc(Cl)c2Cl)c(N)n1 [Lamotrigine] is higher in “Observed Human fa” value: 0.53 for the first, 0.98 for the second.

First: CN(CCOc1ccc(CC2SC(=O)NC2=O)cc1)c1ccccn1 (stereo not shown) [Rosiglitazone]
Second: O=C(O)c1cc(/N=N/c2ccc(S(=O)(=O)Nc3ccccn3)cc2)ccc1O [Sulfasalazine]
The “Observed Human fa” value of the first is higher: 1.0 for the first, 0.33 for the second.

Going from OCCN(CCO)c1nc(N2CCCCC2)c2nc(N(CCO)CCO)nc(N3CCCCC3)c2n1 [Dipyridamole] to OC(CCN1CCCCC1)(c1ccccc1)C1CCCCC1 (stereo not shown) [Trihexyphenidyl], the “Observed Human fa” value rises from 0.56 to 1.0.

For Nc1cccc2c1CN(C1CCC(=O)NC1=O)C2=O (stereo not shown) [Lenalidomide], the “Observed Human fa” value is given as 0.90.

Tested on: not listed separately
Test: Bidirectional transport study with assay-ready Caco-2 cells, 7-day versus 21-day cultivation (Figure S2)
Conditions: human, Caco-2, pH 7.4

CN/C(=N/CCSCc1nc[nH]c1C)NC#N [Cimetidine] and O=C(O)c1cc(/N=N/c2ccc(S(=O)(=O)Nc3ccccn3)cc2)ccc1O [Sulfasalazine] cannot be ordered by efflux ratio at 60 min: over 2 for the first, over 2 for the second.

COc1cc2nc(N3CCN(C(=O)c4ccco4)CC3)nc(N)c2cc1OC [Prazosin] gave an efflux ratio at 60 min of over 2.

Tested on: Caco-2 cells
Test: as above
Conditions: Caco-2 cells maintained 7 days on transwell plates; ER = Papp,BA/Papp,AB

For C[C@]12CC[C@@H]3c4ccc(OS(=O)(=O)O)cc4CC[C@H]3[C@@H]1CCC2=O [Compound E3S, estrone-3-sulfate], the “efflux ratio (ER)” value was over 2.

Same assay, conditions: Caco-2 cells maintained 21 days on transwell plates; ER = Papp,BA/Papp,AB

For CN/C(=N/CCSCc1nc[nH]c1C)NC#N [Cimetidine], the “efflux ratio (ER)” value was over 2.
In the case of COc1cc2nc(N3CCN(C(=O)c4ccco4)CC3)nc(N)c2cc1OC [Prazosin], the “efflux ratio (ER)” value is reported as over 2.
With C[C@]12CC[C@@H]3c4ccc(OS(=O)(=O)O)cc4CC[C@H]3[C@@H]1CCC2=O [Compound E3S, estrone-3-sulfate] the “efflux ratio (ER)” value was over 2.
For O=C(O)c1cc(/N=N/c2ccc(S(=O)(=O)Nc3ccccn3)cc2)ccc1O [Sulfasalazine], the “efflux ratio (ER)” value was over 2.
